Assays:
MCF7 = experiment: compound was tested in vitro for inhibition activity against a sensitive human breast carcinoma line cells.; format: functional, cell-based
NCI/ADR-RES = experiment: compound was tested in vitro for inhibition activity against doxorubicin resistant counterpart of human breast carcinoma line cells.; format: functional, cell-based

Row | SMILES | IC50 (MCF7) [nM equiv l-1] | IC50 (NCI/ADR-RES) [nM equiv l-1]
1 | COc1cccc2c1C(=O)c1c(O)c3c(c(O)c1C2=O)C[C@@](O)(C(C)=O)C[C@@H]3O[C@H]1C[C@H](N)[C@H](O)[C@H](C)O1 [DAUNORUBICIN] | 60 | 2000
2 | COc1cccc2c1C(=O)c1c(O)c3c(c(O)c1C2=O)C[C@@](O)(C(=O)CO)C[C@@H]3OC1CC2C(OCN2CN2COC3C(C)OC(O[C@H]4C[C@](O)(C(=O)CO)Cc5c(O)c6c(c(O)c54)C(=O)c4c(OC)cccc4C6=O)CC32)C(C)O1 (stereo partly drawn) [DOXOFORM] | 2 | 1
3 | COc1cccc2c1C(=O)c1c(O)c3c(c(O)c1C2=O)C[C@@](O)(C(=O)CO)C[C@@H]3O[C@H]1C[C@H](N)[C@H](O)[C@H](C)O1 [DOXORUBICIN] | 300 | 10000
4 | COc1cccc2c1C(=O)c1c(O)c3c(c(O)c1C2=O)C[C@@](O)(C(C)=O)C[C@@H]3OC1CC2C(OCN2CN2COC3C(C)OC(O[C@H]4C[C@](O)(C(C)=O)Cc5c(O)c6c(c(O)c54)C(=O)c4c(OC)cccc4C6=O)CC32)C(C)O1 (stereo partly drawn) [DAUNOFORM] | 8 | 10

Source: ChEMBL document CHEMBL1130103, “Doxoform and Daunoform: anthracycline-formaldehyde conjugates toxic to resistant tumor cells” (J Med Chem, 1997)
